# Laboratory results from patent US20200306185A1, “ANTIBACTERIAL COLLOID AND METHOD FOR MANUFACTURING THE SAME” (Kaohsiung Medical University, priority 2019, published 2020).
# Columns and labels:
# [1] = system: K. pneumoniae 700623; assay: Synergistic bacteriostatic test (checkerboard test); format: cell-based, Klebsiella pneumoniae
# Description: (§1) The synergistic bacteriostatic test is carried out by using the silver-containing antibacterial colloid (green mediated AgNP inhibitor) manufactured in the present embodiment and a bioactivator (using Gentamicin as an example). The fractional inhibitory concentration (FIC) index is used as a reference index for synergy. Synergy is the phenomenon in which two or more substances are mixed with each other, and the overall effect is greater than the advantage of each substance alone or less than the disadvantage of each substance alone. […] In the two-fold serial dilutions, the concentration of Gentamicin used for K. pneumoniae 700623 ranging from 1.25 μg·mL^−1 to 40 μg·mL^−1, and the concentration of Gentamicin used for K. pneumoniae BAA-1705 ranged from 5 μg·mL^−1 to 160 μg·mL^−1 The green mediated AgNP inhibitor extract extracted with TSB medium is used, and the above procedure is repeated to dilute the concentration of the green mediated AgNP inhibitor extract to 10 mg·mL^−1 50 μL of green mediated AgNP inhibitor is added longitudinally to the 96-well microplate in a two-fold serial dilution using MHB, followed by two-fold serial dilutions of six times at concentrations ranging from 0.31 mg·mL^−1 to 10 mg·mL^−1 Using 0.5 Mcfarland turbidity as the quantitative standard for bacterial solution (0.5 Mcfarland=10^8 CFU/mL). […]
# [2] = system: K. pneumoniae BAA-1705; assay: as above; format: cell-based, Klebsiella pneumoniae
# Description: as §1
# [3] = in combination with green mediated AgNP inhibitor
substance,measurement,setting,value
Gentamicin,concentration of Gentamicin when used in combination (G-MIC-com),[1]; [3],5 µg/mL
same,MIC of Gentamicin when used alone (MICG),[1]; used alone,40 µg/mL
same,concentration of Gentamicin when used in combination (G-MIC-com),[2]; [3],10 µg/mL
same,MIC of Gentamicin when used alone (MICG),[2]; used alone,40 µg/mL
